Assay results reported in patent US20240116985A1, “STAPLED PEPTIDES AND METHODS THEREOF” (priority 2020, published 2024).

Target: T1, full-length beta-Catenin (Uniprot ID P35222) (Homo sapiens, UniProt P35222)
T1 construct: 10 nM full-length beta-Catenin (Uniprot ID P35222)
T1 sequence (P35222 1-781): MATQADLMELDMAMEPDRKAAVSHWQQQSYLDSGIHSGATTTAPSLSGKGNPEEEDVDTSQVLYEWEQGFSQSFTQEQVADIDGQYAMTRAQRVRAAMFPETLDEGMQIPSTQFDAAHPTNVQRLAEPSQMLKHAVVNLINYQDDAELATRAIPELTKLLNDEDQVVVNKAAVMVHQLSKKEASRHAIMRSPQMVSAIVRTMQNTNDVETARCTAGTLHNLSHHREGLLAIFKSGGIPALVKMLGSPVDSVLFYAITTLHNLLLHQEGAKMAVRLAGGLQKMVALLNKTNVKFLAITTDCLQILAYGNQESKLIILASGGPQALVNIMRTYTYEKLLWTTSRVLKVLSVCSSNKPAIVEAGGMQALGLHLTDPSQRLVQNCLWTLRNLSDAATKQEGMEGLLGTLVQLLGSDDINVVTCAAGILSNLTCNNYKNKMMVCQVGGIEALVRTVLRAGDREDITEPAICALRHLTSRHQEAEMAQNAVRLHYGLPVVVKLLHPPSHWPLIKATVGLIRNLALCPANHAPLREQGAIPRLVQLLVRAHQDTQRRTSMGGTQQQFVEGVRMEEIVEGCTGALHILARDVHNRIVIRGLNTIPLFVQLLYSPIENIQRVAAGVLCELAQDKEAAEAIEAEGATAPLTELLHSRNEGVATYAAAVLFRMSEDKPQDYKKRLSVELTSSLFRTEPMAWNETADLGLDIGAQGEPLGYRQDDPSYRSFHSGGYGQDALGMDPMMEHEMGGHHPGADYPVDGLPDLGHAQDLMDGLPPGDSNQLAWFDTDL
Assay: Fluorescence polarization IC50 (beta-catenin / 5FAM-TCF4 10-53 competition)
Format: binding
Conditions: fluorescence polarization; read-out: beta-Catenin FP IC50

Structure (SMILES) | IC50 [nM]
CC(=O)N1CCC[C@]12CC=CCCCC1(CCCC=CCCCOC(=O)N3CC[C@](C(=O)N[C@@H](Cc4ccsc4)C(=O)N[C@@H](Cc4csc5ccccc45)C(=O)N[C@@H](CCC(N)=O)C(N)=O)(C3)NC(=O)[C@H](CC(C)C)NC(=O)[C@H](Cc3ccccc3)NC(=O)[C@H](C)NC(=O)[C@H](C)NC(=O)[C@H](CC(=O)O)NC(=O)[C@H](CC(=O)O)NC1=O)NC(=O)[C@H](CC(C)(C)C)NC(=O)[C@H](CC(=O)O)NC2=O (stereo partly drawn) [I-2019, Ac-PL3-Asp-Npg-B5-Asp-Asp-Ala-Ala-Phe-Leu-PyrR2-3Thi-BztA-Gln-NH2] | 1450
CC(=O)N1CCC[C@]12CC=CCCCC1(CCCC=CCCCOC(=O)N3CC[C@](C(=O)N[C@@H](Cc4ccsc4)C(=O)N[C@@H](Cc4csc5ccccc45)C(=O)N[C@@H](CCC(N)=O)C(N)=O)(C3)NC(=O)[C@H](CC(C)C)NC(=O)[C@H](Cc3ccccc3)NC(=O)[C@H](C)NC(=O)[C@H](C)NC(=O)[C@H](CC(=O)O)NC(=O)[C@H](CC(=O)O)NC1=O)NC(=O)[C@H](CC(C)(C)C)NC(=O)[C@H](CC(=O)O)NC2=O (stereo partly drawn) [I-2020, Ac-PL3-Asp-Npg-B5-Asp-Asp-Ala-Ala-Phe-Leu-PyrR2-3Thi-BztA-Gln-NH2] | 1200
CC(=O)N1CCC[C@]12CCCCCCC1(CCCCCCCCOC(=O)N3CC[C@](C(=O)N[C@@H](Cc4ccsc4)C(=O)N[C@@H](Cc4csc5ccccc45)C(=O)N[C@@H](CCC(N)=O)C(N)=O)(C3)NC(=O)[C@H](CC(N)=O)NC(=O)[C@H](Cc3ccccc3)NC(=O)[C@H](C)NC(=O)[C@H](C)NC(=O)[C@H](CC(=O)O)NC(=O)[C@H](CC(=O)O)NC1=O)NC(=O)[C@H](CC(C)(C)C)NC(=O)[C@H](CC(=O)O)NC2=O (stereo partly drawn) [I-2021, Ac-PL3-Asp-Npg-B5-Asp-Asp-Ala-Ala-Phe-Asn-PyrR2-3Thi-BztA-Gln-NH2] | 5380
CC(=O)N1CCC[C@]12CCCCCCC1(CCCCCCCCOC(=O)N3CC[C@](C(=O)N[C@@H](Cc4ccsc4)C(=O)N[C@@H](Cc4csc5ccccc45)C(=O)N[C@@H](CCC(N)=O)C(N)=O)(C3)NC(=O)[C@H](CC(C)C)NC(=O)[C@H](Cc3ccccc3)NC(=O)[C@H](C)NC(=O)[C@H](C)NC(=O)[C@H](CC(=O)O)NC(=O)[C@H](CC(=O)O)NC1=O)NC(=O)[C@H](CC(C)(C)C)NC(=O)[C@H](CC(=O)O)NC2=O (stereo partly drawn) [I-2022, Ac-PL3-Asp-Npg-B5-Asp-Asp-Ala-Ala-Phe-Leu-PyrR2-3Thi-BztA-Gln-NH2] | 1890
CC(=O)N1CCC[C@]12CC=CCCCC1(CCCC=CCCCOC(=O)N3CC[C@@](C(=O)N[C@@H](Cc4ccccc4Cl)C(=O)N[C@@H](Cc4csc5ccccc45)C(=O)N[C@@H](Cc4ccccc4)C(N)=O)(C3)NC(=O)[C@H](C)NC(=O)[C@H](Cc3ccccc3)NC(=O)[C@H](C)NC(=O)[C@H](C)NC(=O)[C@H](Cc3cccc(C(=O)O)c3)NC(=O)[C@H](CC(=O)O)NC1=O)NC(=O)[C@H](CC(C)(C)C)NC(=O)[C@H](CC(=O)O)NC2=O (stereo partly drawn) [I-2025, Ac-PL3-Asp-Npg-B5-Asp-3COOHF-Ala-Ala-Phe-Ala-PyrS2-2C1F-BztA-Phe-NH2] | 109
CC(=O)N1CCC[C@]12CC=CCCCC1(CCCC=CCCCOC(=O)N3CC[C@@](C(=O)N[C@@H](Cc4ccccc4Cl)C(=O)N[C@@H](Cc4csc5ccccc45)C(=O)N[C@H](C)C(N)=O)(C3)NC(=O)[C@H](CC(N)=O)NC(=O)[C@H](Cc3ccccc3)NC(=O)[C@H](C)NC(=O)[C@H](C)NC(=O)[C@H](Cc3cccc(C(=O)O)c3)NC(=O)[C@H](CC(=O)O)NC1=O)NC(=O)[C@H](CC(C)(C)C)NC(=O)[C@H](CC(=O)O)NC2=O (stereo partly drawn) [I-2034, Ac-PL3-Asp-Npg-B5-Asp-3COOHF-Ala-Ala-Phe-Asn-PyrS2-2C1F-BztA-dAla-NH2] | 18
CC(=O)N1CCC[C@]12CC=CCCCC1(CCCC=CCCCOC(=O)N3CC[C@@](C(=O)N[C@@H](Cc4ccsc4)C(=O)N[C@@H](Cc4csc5ccccc45)C(=O)N[C@@H](C)C(N)=O)(C3)NC(=O)[C@H](C(C)C)NC(=O)[C@H](Cc3ccccc3)NC(=O)[C@H](C)NC(=O)[C@H](CCC(N)=O)NC(=O)[C@H](Cc3cccc(C(=O)O)c3)NC(=O)[C@H](CC(=O)O)NC1=O)NC(=O)[C@H](CC(C)(C)C)NC(=O)[C@H](CC(=O)O)NC2=O (stereo partly drawn) [I-2054, Ac-PL3-Asp-Npg-B5-Asp-3COOHF-Gln-Ala-Phe-Val-PyrS2-3Thi-BztA-Ala-NH2] | 5

Further lines, results first:

IC50 [nM] | Structure (SMILES)
357 | CC(=O)N1CCC[C@]12CC=CCCCC1(CCCC=CCCCOC(=O)N3CC[C@@](C(=O)N[C@@H](Cc4ccccc4)C(=O)N[C@@H](Cc4csc5ccccc45)C(=O)N[C@@H](CCO)C(N)=O)(C3)NC(=O)[C@H](CC(N)=O)NC(=O)[C@H](Cc3ccccc3)NC(=O)[C@H](C)NC(=O)[C@H](Cc3c[nH]cn3)NC(=O)[C@H](CCC(N)=O)NC(=O)[C@H](CC(=O)O)NC1=O)NC(=O)[C@H](CC1CCCCC1)NC(=O)[C@H](CC(N)=O)NC2=O (stereo partly drawn) [I-2066, Ac-PL3-Asn-Cha-B5-Asp-Gln-His-Ala-Phe-Asn-PyrS2-Phe-BztA-Hse-NH2]
592 | CC(=O)N1CCC[C@]12CC=CCCCC1(CCCC=CCCCOC(=O)N3CC[C@@](C(=O)N[C@@H](Cc4cscn4)C(=O)N[C@@H](Cc4csc5ccccc45)C(=O)N[C@@H](CCO)C(N)=O)(C3)NC(=O)[C@H](CC(N)=O)NC(=O)[C@H](Cc3ccccc3)NC(=O)[C@H](C)NC(=O)[C@H](CCCCNC(C)C)NC(=O)[C@H](CCC(N)=O)NC(=O)[C@H](CC(=O)O)NC1=O)NC(=O)[C@H](CC1CCCCC1)NC(=O)[C@H](CC(N)=O)NC2=O (stereo partly drawn) [I-2071, Ac-PL3-Asn-Cha-B5-Asp-Gln-iPrLys-Ala-Phe-Asn-PyrS2-4Thz-BztA-Hse-NH2]
8260 | CC(=O)N1CCC[C@]12CC=CCCCC1(CCCC=CCCCOC(=O)N3CC[C@@](C(=O)N[C@@H](Cc4ccccc4)C(=O)N[C@@H](Cc4csc5ccccc45)C(=O)N[C@@H](CCO)C(N)=O)(C3)NC(=O)[C@H](CC(N)=O)NC(=O)[C@H](Cc3cscn3)NC(=O)[C@H](C)NC(=O)[C@H](CCCCNC(C)C)NC(=O)[C@H](CCC(N)=O)NC(=O)[C@H](CC(=O)O)NC1=O)NC(=O)[C@H](CC1CCCCC1)NC(=O)[C@H](CC(N)=O)NC2=O (stereo partly drawn) [I-2072, Ac-PL3-Asn-Cha-B5-Asp-Gln-iPrLys-Ala-4Thz-Asn-PyrS2-Phe-BztA-Hse-NH2]
398 | CC(=O)N1CCC[C@]12CC=CCCCC1(CCCC=CCCCOC(=O)N3CC[C@@](C(=O)N[C@@H](Cc4ccccc4)C(=O)N[C@@H](Cc4csc5ccccc45)C(N)=O)(C3)NC(=O)[C@H](CC(N)=O)NC(=O)[C@H](Cc3ccccc3)NC(=O)[C@H](C)NC(=O)[C@H](CCCCNC(C)C)NC(=O)[C@H](CCC(N)=O)NC(=O)[C@H](CC(=O)O)NC1=O)NC(=O)[C@H](CC1CCCCC1)NC(=O)[C@H](CC(N)=O)NC2=O (stereo partly drawn) [I-2073, Ac-PL3-Asn-Cha-B5-Asp-Gln-iPrLys-Ala-Phe-Asn-PyrS2-Phe-BztA-NH2]
789 | CC(=O)N1CCC[C@]12CC=CCCCC1(CCCC=CCCCOC(=O)N3CC[C@@](C(=O)N[C@@H](Cc4ccsc4)C(=O)N[C@@H](Cc4csc5ccccc45)C(=O)N[C@@H](CCO)C(N)=O)(C3)NC(=O)[C@H](CC(N)=O)NC(=O)[C@H](Cc3ccccc3)NC(=O)[C@H](C)NC(=O)[C@H](CCCCNC(C)C)NC(=O)[C@H](CCC(N)=O)NC(=O)[C@H](CC(=O)O)NC1=O)NC(=O)[C@H](CC1CCCCC1)NC(=O)[C@H](CC(N)=O)NC2=O (stereo partly drawn) [I-2074, Ac-PL3-Asn-Cha-B5-Asp-Gln-iPrLys-Ala-Phe-Asn-PyrS2-3Thi-BztA-Hse-NH2]
2330 | CC(=O)N1CCC[C@]12CC=CCCCC1(CCCC=CCCCOC(=O)N3CC[C@@](C(=O)N[C@@H](Cc4cccs4)C(=O)N[C@@H](Cc4csc5ccccc45)C(=O)N[C@@H](CCO)C(N)=O)(C3)NC(=O)[C@H](CC(N)=O)NC(=O)[C@H](Cc3ccccc3)NC(=O)[C@H](C)NC(=O)[C@H](CCCCNC(C)C)NC(=O)[C@H](CCC(N)=O)NC(=O)[C@H](CC(=O)O)NC1=O)NC(=O)[C@H](CC1CCCCC1)NC(=O)[C@H](CC(N)=O)NC2=O (stereo partly drawn) [I-2075, Ac-PL3-Asn-Cha-B5-Asp-Gln-iPrLys-Ala-Phe-Asn-PyrS2-2Thi-BztA-Hse-NH2]
325 | CC(=O)N1CCC[C@]12CC=CCCCC1(CCCC=CCCCOC(=O)N3CC[C@@](C(=O)N[C@@H](Cc4ccccc4C(F)(F)F)C(=O)N[C@@H](Cc4csc5ccccc45)C(=O)N[C@@H](C)C(N)=O)(C3)NC(=O)[C@H](CC(C)C)NC(=O)[C@H](Cc3ccccc3)NC(=O)[C@@H](C)NC(=O)[C@H](C)NC(=O)[C@H](Cc3cccc(C(=O)O)c3)NC(=O)[C@H](CC(=O)O)NC1=O)NC(=O)[C@H](CC(C)(C)C)NC(=O)[C@H](CC(=O)O)NC2=O (stereo partly drawn) [I-2099, Ac-PL3-Asp-Npg-B5-Asp-3COOHF-Ala-dAla-Phe-Leu-PyrS2-2F3MeF-BztA-Ala-NH2]
424 | CC(=O)N1CCC[C@]12CC=CCCCC1(CCCC=CCCCOC(=O)N3CC[C@@](C(=O)N[C@@H](Cc4ccccc4C(F)(F)F)C(=O)N[C@@H](Cc4csc5ccccc45)C(=O)N[C@H](C)C(N)=O)(C3)NC(=O)[C@H](CC(C)C)NC(=O)[C@H](Cc3ccccc3)NC(=O)[C@@H](C)NC(=O)[C@H](C)NC(=O)[C@H](Cc3cccc(C(=O)O)c3)NC(=O)[C@H](CC(=O)O)NC1=O)NC(=O)[C@H](CC(C)(C)C)NC(=O)[C@H](CC(=O)O)NC2=O (stereo partly drawn) [I-2101, Ac-PL3-Asp-Npg-B5-Asp-3COOHF-Ala-dAla-Phe-Leu-PyrS2-2F3MeF-BztA-dAla-NH2]
